From a melting point compilation (Tetko et al.; mined from patent text by program, amines drawn as free bases though some values may be those of a salt)

| melting point [°C] | Compound |
| --- | --- |
| 83 to 88 | COC(=O)C(CO)N(Cc1cc(F)ccc1[N+](=O)[O-])S(=O)(=O)c1ccc(OC)cc1 (stereo not drawn) |
| > 300 | Oc1nc2ccc3nsnc3c2nc1O |
| 280 | COc1ccc(C(=O)O)c2c1oc1ccccc12 |
| 202 to 204 | CC(=O)NC[C@H]1CN(c2ccc(N3CCN(C(=S)CN)CC3)c(F)c2)C(=O)O1 |
| 74 to 76 | CCCCCCCCCCCC(=O)OC1C(C)C(c2ccccc2)NC(c2ccccc2)C1C (stereo not drawn) |
| 180 to 181 | O=C(O)COc1cccc(-c2c3ccccc3c(Br)c3sc4ccccc4c23)c1 |
| 93.5 | CCCCCc1ccc(-c2ncc([C@H]3CC[C@H](CCC)CC3)cn2)cc1 |
| > 300 | CCc1nc2c(N)nc(-c3ccncc3)nc2[nH]1 |
| 97 to 99 | O=C(NC[C@H](O)c1ccccc1)c1ccnc(N2CCN(Cc3ccc(F)cc3)C2=O)c1 |
| 123 to 124 | CS(=O)(=O)c1ccc(C2=C(c3ccc(F)cc3)CC3(CCC3)C2)cc1 |
| 184 to 185 | O=C(/C=C/CC1CCN(Cc2ccccc2)CC1)c1ccc(Nc2ncnc3c2CCC3)cc1 |
| 197 to 198 | CCC(=O)Nc1cc(NC(=O)CC)cc([N+](=O)[O-])c1 |
| 198 to 201 | CC1(C)Nc2ncc(I)cc2N(Cc2cc(F)ccc2F)C1=O |
| 78.5 to 81 | Cc1ccccc1-c1ccn(C(C)(C)C(=O)N(C)C)n1 |
| 73 to 74 | COC(=O)NCC(=CF)c1ccccc1 |
| 89 | CCCCCCCCCCCC(=O)N[C@@H](Cc1ccc(O)cc1)C(=O)OC |
| 173 to 174 | Cc1ccc(C)c(CN(c2ncnc3c2cnn3C2CCCO2)C2CCCC2)c1 (stereo not drawn) |
| 109 to 112 | CC(C)(C)C(=O)C(O)C(OS(=O)(=O)C(F)(F)F)C1OC(O)(C(=O)C(C)(C)C)C(O)(C(=O)C(C)(C)C)C1(O)C(=O)C(C)(C)C (stereo not drawn) |
| 54 to 56 | CC1CC(=O)NN=C1c1ccc(NC(=O)CCNCC(O)COc2ccc(CCOCC3CC3)cc2)cc1 (stereo not drawn) |
| 204 to 205 | Cc1cccc(-c2nc3cccnn3c2-c2ccnc(NC(=O)c3cccc(F)c3)c2)c1 |
| 83 to 87 | COC(=O)CCc1cc2cc(Cl)ccc2n1S(=O)(=O)c1ccc(C(C)=O)cc1 |
| 146 to 147 | Cc1cc(N(C)C(N)=O)no1 |
| 135 to 137 | COc1cc(-c2ncc(C(F)(F)F)cc2Cl)ccc1C#N |

| melting point [°C] | Compound |
| --- | --- |
| 138 to 139 | C#CC(O)c1cccc2ccncc12 (stereo not drawn) |
| 169 to 170 | Cc1c2n(c(=O)c3c(O)cccc13)CCCS2=O (stereo not drawn) |
| 111 to 112 | CCCc1nn(-c2ccc(C(F)(F)F)cn2)cc1CCCOc1ccc(F)c(CC(=O)O)c1 |
| 79 to 84 | COC(=O)c1cccc(/C=C/c2cccc(Br)c2)c1 |
| 148 | CCCOc1cc(C)c(NC(=O)C(C)Br)c(C)c1 (stereo not drawn) |
| 96 to 98 | CNC(=S)NCCSCc1c[nH]cn1 |
| 225 to 227 | Cc1cc2oc3ccccc3c(=O)c2cc1OCC(=O)O |
| 114 | COc1cc(-c2cccc(C)c2)cc2oc(=O)c(C)c(C)c12 |
| 222 to 224 | c1ccc2c(NCCc3c[nH]cn3)nsc2c1 |
| 127 to 134 | CCOC(=O)C(=CN[C@@H](C)CO)C(=O)c1c(F)c(F)c(Br)c(F)c1F |
| 185 to 187 | Cc1cc(NCC(C)C)c([N+](=O)[O-])c2nnnn12 |
| 78 to 82 | CCCCCCCCCCCCCCCc1c([N+](=O)[O-])cc([N+](=O)[O-])c(O)c1C(=O)O |
| 285 to 287 | O=C(O)c1ccc(C(=O)NS(=O)(=O)c2ccc(Cl)cc2)cc1 |
| 172 to 173 | COc1ccc(CNC(N)=O)cc1OC |
| 130 | CCCCN1CC2CN(S(=O)(=O)c3ccc(NC(C)=O)cc3)CC(C1)C2(C)C |
| 90 to 94 | CC(C)(C)c1cc(CCC(=O)NN2C(=O)C=CC2=O)cc(C(C)(C)C)c1O |
| 194 to 196 | O=CNc1nc(S(=O)(=O)Cl)n[nH]1 |
| 54 to 56 | CC(=O)OC/C=C/c1ccc(-c2ccccc2C)cc1 |
| 200 to 202 | NC1=CC=C2C=c3c(cnn3-c3ccccc3)=C2C1=O |
| 138 to 140 | CNC(=O)[C@@H](NC(=O)[C@@H](CC(=O)O)n1ccc(-c2ccc(C#N)cc2)c1)C(C)(C)C |
| 67 to 68 | COc1cc(C)c(CCCCCCCCCCCCCCCCCCCCCC(=O)O)c(O)c1OC |
| 116 to 118 | CC(C(=O)Nc1ccc2[nH]c(=O)oc2c1)N1CCC(Cc2ccccc2)CC1 (stereo not drawn) |
| 67 to 74 | COc1cc2c(cc1Nc1ncc(Cl)c(Nc3ccccc3S(=O)(=O)N3CCCC3)n1)CCN(CC(=O)N(C)C)CC2 |

| melting point [°C] | Compound |
| --- | --- |
| 119 to 122 | CCOC(=O)COc1ccc(NC(=O)c2ccc(C(C)(C)C)cc2)cc1 |
| 114 to 115 | CC(C)(C)OC(=O)NCCNC(=O)c1cccc(Cl)n1 |
| 130 to 131 | CCOC(=O)Cn1c(=O)sc2cc(-c3ccccc3)c(Cl)cc21 |
| 306 to 308 | Cc1cc2nc(C)c(=O)[nH]c2cc1C |
| 272 | Cn1nnc2c(N3CCOCC3)nc(-c3ccc(NC(=O)Nc4ccsc4)cc3)nc21 |
| 123 to 124 | COC(=O)c1ccc(OC)c(C=O)c1O |
| 130 to 132 | C=Cc1c(N)nc(-c2ccc(Cl)c(F)c2F)nc1C(=O)OC |
| 188 to 190 | NCC(O)COc1cccc2c1=NC(=O)N=2 (stereo not drawn) |
| 81 to 86 | CC(C)(O)c1cccc2ccccc12 |
| 284 | CN1CCN(CCC(=O)Nc2ccc3c(c2)C(=O)c2cc(NC(=O)CCN4CCN(C)CC4)ccc2C3=O)CC1 |
| 122 to 124 | O=C1CCCC(Cl)=C1C(=O)c1ccc(Cl)c(OCCn2cnnn2)c1Cl |
| 99 to 100 | COc1ccc(CCCNC(=O)N(C)O)cc1OC |
| 105 to 107 | CCCn1c2c(ccc1=O)C(NCCc1ccc(Cl)c(Cl)c1)CCC2 (stereo not drawn) |
| 184 to 186 | [N-]=[N+]=Nc1cnn(-c2cc(-c3ccnc(Nc4cccc(Cl)c4)n3)ccn2)c(=O)c1Cl |
| 175 to 177 | CNS(=O)(=O)c1ccccc1Nc1nc(Nc2ccc3c(c2)CCCC(=O)N3C)ncc1Cl |
| 275 to 276 | O=c1cc(-c2cc(F)c(O)c(F)c2)oc2ccccc12 |
| 210 to 215 | CCCc1cc(-c2ccc(C3COC(c4c(F)cccc4F)=N3)cc2)ccc1O (stereo not drawn) |
| 140 to 142 | Cc1ccc(C(=S)NN)cc1 |
| 73 to 74 | CCCN(CCC)C(=O)C(C)Oc1nc(-c2ccccc2)nc2c1CCCC2 (stereo not drawn) |
| 160 to 162 | Cc1ccc(-c2ccc(C(=O)N3Cc4cccn4Cc4ccccc43)cc2)c2ccccc12 |
| 87 to 89 | O=C1OCCC1C(=O)c1ccc(F)cc1[N+](=O)[O-] (stereo not drawn) |
| 90 to 93 | O=C(Nc1ccc(OCCN2CCOCC2)c2ccccc12)c1cccc(Br)c1 |
| 235 to 236 | COc1ccc(S(C)(=O)=O)cc1-c1nc2ccc(C(C)(C)CNC=O)cc2[nH]1 |

| melting point [°C] | Compound |
| --- | --- |
| 253 | O=c1cnc2cc(C(c3cccc(Cl)c3)n3ccnc3)ccc2[nH]1 (stereo not drawn) |
| 143 | Cc1cc(C)c2c(c1)nc(NC1CCN(CCO)CC1)n2Cc1nc(C)ccc1O |
| 170 to 172 | CCc1nc(OC)c(NC(=O)N2CCN(c3cc(OC)cc(OC)c3)CC2)cc1C(=O)Nc1cc(CO)cc(Nc2c3ccccc3nc3ccccc23)c1 |
| 70 | CCC(=O)Nc1cccc(NC(=O)CC(C)=O)c1 |
| 180 to 222 | OC1CSC(Oc2cccc(-c3cccc(Cl)n3)c2)C(O)C1O (stereo not drawn) |
| 143 | COc1ccc(CS[C@@H]2C[C@@H](CN=[N+]=[N-])N(S(=O)(=O)c3ccc4ccccc4c3)C2)cc1 |
| 149 to 150 | CCOC(=O)Nc1ccc(OCc2nc3ccccc3s2)cc1 |
| 133 to 135 | CC1(C(O)CBr)COc2cc(Cl)ccc2O1 (stereo not drawn) |
| 128 to 130 | C[C@H](C#Cc1scc(Cc2ccc(F)cc2)c1Cc1ccc(F)cc1)N(O)C(N)=O |
| 204 | Cc1c(O)c(C)c(Cc2cc(C(C)(C)C)c(O)c(C(C)(C)C)c2)c(C)c1Cc1cc(C(C)(C)C)c(O)c(C(C)(C)C)c1 |
| 141 to 143 | c1cc(-c2cnn3cc(-c4ccc(OCCN5CCCCC5)cc4)cnc23)cs1 |
| 134 | O=S1(=O)c2cccc3cccc(c23)N1CCN1CCC(CC2CNc3ccccc3C2)CC1 (stereo not drawn) |
| 118 to 120 | CC1CC2(CN(O)C2=O)c2cc(F)ccc2O1 (stereo not drawn) |
| 85 to 87 | CC(=O)C(=Cc1cc(Cl)cc(Cl)c1)C(C)=O |
| 170 to 171 | CCCCc1nc2cccc(CC(=O)O)c2n1Cc1ccc(-c2ccccc2-c2nnn[nH]2)cc1 |
| 112 to 114 | CN(C)C(=O)c1ccccc1Sc1ccc(Br)cc1[N+](=O)[O-] |
| 152 to 154 | CCCCCCCCC1C=CC(/C(C)=C/c2ccc(C(=O)O)o2)=C2N=C3CCCCC3=C21 (stereo not drawn) |
| 140 to 142 | CNCC(O)COc1cc(-c2ccc(OC)cc2)nc2cc(C)ccc12 (racemic) |
| 102 | COc1ccc(CCN(C)CCCCc2ccc(NC(=O)c3cccc4c(=O)c5ccccc5oc34)cc2)cc1OC |
| 147 to 148 | Cn1c(C(F)(F)F)ccc(-c2cc(S(C)=O)c(Cl)cc2F)c1=O (stereo not drawn) |
| 162 to 163 | CC(C)(C(N)=O)C(O)(Cn1cncn1)c1ccc(Cl)cc1Cl (stereo not drawn) |

| Compound | melting point [°C] |
| --- | --- |
| N#Cc1ccc(N2C(=O)[C@@H]3[C@H](O)CCN3C2=S)c2ccccc12 | 215 to 216 |
| NC(=N[N+](=O)[O-])NCCC[C@@H](NC(=O)C(c1ccccc1)c1ccccc1)C(=O)NCc1ccc(COC(=O)Oc2ccccc2)cc1 | 186 to 187 |
| CNc1nc(CCN2CCC(Nc3nc4ccccc4n3Cc3ccc(F)cc3)CC2)c(C)s1 | 182 |
| C=CCc1c(O)c(C)cc2c1C(C)(C)CC1(CC(C)(C)c3c(cc(C)c(O)c3CC=C)O1)O2 | 95 to 97 |
| CC(C)(C)c1ccc(Cn2cc(C(=O)C(=O)O)c3ccc(-c4ccc(OC(F)(F)F)cc4)cc32)cc1 | 183 to 186 |
| CC(=O)OCc1ncc2n1-c1ccc(Cl)cc1C(c1ccccc1F)=[N+]([O-])C2 | 203 to 205 |
| CCCCCCCCCCCCCCCc1c([N+](=O)[O-])cc([N+](=O)[O-])c(O)c1[N+](=O)[O-] | 53 to 56 |
| CN1C(=O)CN=C(c2cccc(C(F)(F)F)c2)c2ccccc21 | 121 to 122 |
